Experimental data taken from patent US6468729B2, “Silver halide photographic light-sensitive material” (Fuji Photo Film Co., Ltd., priority 2000, dated 2002).

experiment: pKa measurement by titration (AT-210 device, neutralization middle point); type: physicochemical; settings: —NHSO2— dissociation group, 25° C., THF/H2O=6/4
Protocol: The measurement of the pKa value in the present invention will be described below. […] 20 mL of H2O were then added to completely dissolve the material. Subsequently, 0.25 mL of an aqueous 0.2 N hydrochloric acid solution was added, and the resultant solution was stirred. An aqueous 0.2 N NaOH solution was dropped into this solution, and the pKa value was obtained from the neutralization middle point. All pKa values in the present invention were obtained under the above measurement conditions.

| Compound | pKa value |
| --- | --- |
| CCCCCCCCCCCCCCCCCCOc1ccc(C(C)(C)C)cc1S(=O)(=O)NC(C)c1n[nH]c2cc(C(C)(C)C)nn12 (centres unmarked) [Compound G-1] | more than 12 |
| CCCCCCCCCCCCCCCC(C(=O)O)C(=O)Nc1cccc(C(=O)Nc2ccc(CCCc3n[nH]c4cc(C(C)(C)C)nn34)cc2)c1 (centres unmarked) [Compound G-2] | more than 12 |
| CCCCCCCCOc1ccc(C(C)(C)CC(C)(C)C)cc1S(=O)(=O)Nc1cc(S(=O)(=O)Nc2c(C)cc(C)c(-c3n[nH]c4cc(CC)nn34)c2C)ccc1Cl [Compound G-3] | more than 12 |
| CCCCCCCCCCCCC(Oc1ccc(NS(=O)(=O)c2ccc(S(N)(=O)=O)cc2)cc1)c1n[nH]c2c(Cl)c(C)nn12 (centres unmarked) [Compound G-7] | more than 12 |

Second part, the compound after the results:

| pKa value | Compound |
| --- | --- |
| more than 12 | CCCCCCCCOc1ccc(NS(=O)(=O)c2cc(C(C)(C)CC(C)(C)C)ccc2OCCOc2ccc(C)cc2)cc1S(=O)(=O)NC(C)c1n[nH]c2cc(C(C)(C)C)nn12 (centres unmarked) [Compound G-4] |
| more than 12 | CCCCCCCCOc1ccc(C(C)(C)CC(C)(C)C)cc1S(=O)(=O)Nc1ccc(OCCOC)c(S(=O)(=O)NC(C)(C)c2n[nH]c3c(Cl)c(C(C)(C)C)nn23)c1 [Compound G-5] |
| more than 12 | CCCCCCCCOc1ccc(NS(=O)(=O)c2cc(C(C)(C)CC(C)(C)C)ccc2OCCCCCCCC)cc1S(=O)(=O)NCC(C)c1n[nH]c2c(Cl)c(C(C)(C)C)nn12 (centres unmarked) [Compound G-6] |
| more than 12 | CCCCCCCCOc1ccc(NS(=O)(=O)c2cc(C(C)(C)CC(C)(C)C)ccc2OCCCCCCCC)cc1S(=O)(=O)NCC(C)c1n[nH]c2cc(CC)nn12 (centres unmarked) [Compound G-9] |
